Assay results as given in US20230107642A1 (Erasca, Inc., priority 2020, published 2023).

Assay: Determination of total drug concentration in rat brain (BBB penetration)
Assay type: in vivo
Settings: male SD rat, 2 mg/kg IV infusion for 4 hours, brain collected at end of 4 hours
Description: BB. Example 9: Determination of Total Drug Concentration in Rat Brain
In Vivo Experimental Procedures
Infuse male SD rat at 2 mg/kg dose for 4 hours through IV administration route. Collect brain tissues at the end of 4 hours.
Sample Preparation Procedures
Dilute brain tissue by adding homogenization solvent (1:4, w/v). Homogenize diluted brain tissue samples. Extract analyte by adding organic solvent (1:4, v/v) with spiked internal standard. Vortex and centrifuge the samples. Remove supernatant and dilute with HPLC compatible solvent (1:3, v/v).
Inject diluted extract into LC-MS/MS system using reversed phase high performance liquid chromatography coupled with electrospray ionization and selected reaction monitoring. Determine the total drug concentration in brain samples by quantitating against the standard curve prepared using the same matrix.
The following data provides blood brain barrier (BBB) penetration activity for a selection of inventive compounds where were directly compared to sotorasib and adagrasib (concentration in brain measured in ng/g).
Compounds that were measured as having a total concentration in the brain of at least 60 ng/g are indicated as “+”.

C=CC(=O)N1[C@H](C)CN(c2nc(=O)n3c4c(c(-c5cc(Cl)c(F)cc5F)c(C(F)(F)F)cc24)SC[C@@H]3COCOC)C[C@@H]1C [Example 13-50]
BBB activity: − (Compounds that did not meet this threshold are indicated as “−”)

C=CC(=O)N1C[C@H](C)N(c2nc(=O)n3c4c(c(-c5ccc(F)cc5F)c(C(F)(F)F)cc24)SCC2(COC2)C3)C[C@H]1C [Example 13-51]
BBB activity: − (Compounds that did not meet this threshold are indicated as “−”)

C=CC(=O)N1C[C@H](C)N(c2nc(=O)n3c4c(c(-c5ccc(F)cc5)c(Cl)cc24)OCC3CN(C)C)C[C@H]1C (some centres unmarked) [Example 13-53]
BBB activity: − (Compounds that did not meet this threshold are indicated as “−”)

[2H]C1([2H])N(C(=O)C=C)C([2H])([2H])C([2H])([2H])N(c2nc(=O)n3c4c(c(-c5cc(Cl)c(F)cc5F)c(C(F)(F)F)cc24)SCC2(COC2)C3)C1([2H])[2H] [Example 13-54]
BBB activity: − (Compounds that did not meet this threshold are indicated as “−”)

C=CC(=O)N1[C@H](C)CN(c2nc(=O)n3c4c(c(-c5ccc(F)cc5)c(C(F)(F)F)cc24)SC[C@@H](OCC)C3)C[C@@H]1C [Example 13-55]
BBB activity: − (Compounds that did not meet this threshold are indicated as “−”)

C=CC(=O)N1C[C@H](C)N(c2nc(=O)n3c4c(c(-c5cc(Cl)c(F)cc5F)c(Cl)cc24)SC[C@@H]3CN2CCN(CC(F)F)CC2)C[C@H]1C [Example 13-56]
BBB activity: − (Compounds that did not meet this threshold are indicated as “−”)

C=CC(=O)N1C[C@H](C)N(c2nc(=O)n3c4c(c(-c5cc(F)c(F)cc5F)c(C(F)(F)F)cc24)SC[C@@H]3CN2CCN(CC(F)F)CC2)C[C@H]1C [Example 13-57]
BBB activity: − (Compounds that did not meet this threshold are indicated as “−”)

C=CC(=O)N1C[C@H](C)N(c2nc(=O)n3c4c(c(-c5ccc(F)cc5F)c(Cl)cc24)OC[C@H]3CC2CCN(CC(F)F)CC2)C[C@H]1C [Example 13-59]
BBB activity: − (Compounds that did not meet this threshold are indicated as “−”)

C=CC(=O)N1CCN(c2nc(=O)n3c4c(c(-c5ccc(F)cc5F)c(Cl)cc24)SCCC3)[C@@H](C)C1 [Example 13-61]
BBB activity: − (Compounds that did not meet this threshold are indicated as “−”)

C=CC(=O)N1[C@H](C)CN(c2nc(=O)n3c4c(c(-c5cc(Cl)c(F)cc5F)c(C(F)(F)F)cc24)CC[C@@H]3CC2CCC3(CC2)COC3)C[C@@H]1C [Example 13-63]
BBB activity: − (Compounds that did not meet this threshold are indicated as “−”)

C=CC(=O)N1[C@H](C)CN(c2nc(=O)n3c4c(c(-c5ccc(F)cc5)c(C(F)(F)F)cc24)SC[C@@H](OCCF)C3)C[C@@H]1C [Example 13-64]
BBB activity: − (Compounds that did not meet this threshold are indicated as “−”)

C=CC(=O)N1[C@H](C)CN(c2nc(=O)n3c4c(c(-c5ccc(F)cc5)c(C(F)(F)F)cc24)SC[C@@H](COC)C3)C[C@@H]1C [Example 13-65]
BBB activity: − (Compounds that did not meet this threshold are indicated as “−”)

C=CC(=O)C1[C@H](C)CN(c2nc(=O)n3c4c(c(-c5ccc(F)cc5)c(C(F)(F)F)cc24)SC[C@@H](OC)C3)C[C@@H]1C (some centres unmarked) [Example 13-66]
BBB activity: − (Compounds that did not meet this threshold are indicated as “−”)

C=CC(=O)N1CCN(c2nc(=O)n3c4c(c(-c5c(F)cc(F)c6ccccc56)c(Cl)cc24)SCC3)[C@@H](C)C1 [Example 13-67]
BBB activity: − (Compounds that did not meet this threshold are indicated as “−”)

C=CC(=O)N1[C@H](C)CN(c2nc(=O)n3c4c(c(-c5ccc(F)c6sccc56)c(C(F)(F)F)cc24)SC[C@@H]3COC)C[C@@H]1C [Example 13-68]
BBB activity: − (Compounds that did not meet this threshold are indicated as “−”)

C=CC(=O)N1[C@H](C)CN(c2nc(=O)n3c4c(c(-c5ccc(F)cc5)c(Cl)cc24)SC[C@@H](OC)C3)C[C@@H]1C [Example 13-69]
BBB activity: − (Compounds that did not meet this threshold are indicated as “−”)

C=CC(=O)N1[C@H](C)CN(c2nc(=O)n3c4c(c(-c5ccc(F)cc5F)c(C(F)(F)F)cc24)SC[C@@H](OC)C3)C[C@@H]1C [Example 13-72]
BBB activity: − (Compounds that did not meet this threshold are indicated as “−”)

C=CC(=O)N1C[C@H](C)N(c2nc(=O)n3c4c(c(-c5cc(Cl)c(F)cc5F)c(C(F)(F)F)cc24)CC[C@@H]3CN2CCC3(CC2)COC3)C[C@H]1C [Example 13-74]
BBB activity: − (Compounds that did not meet this threshold are indicated as “−”)

C=C(F)C(=O)N1CCN(c2nc(OC[C@H]3CCCN3C)nc3c2CCN(c2cccc4cccc(Cl)c24)C3)C[C@@H]1CC#N [Example 13-75]
BBB activity: − (Compounds that did not meet this threshold are indicated as “−”)

C=CC(=O)N1C[C@H](C)N(c2nc(=O)n3c4c(c(-c5ccc(F)cc5F)c(Cl)cc24)OC[C@H]3CCCN2C[C@H]3C[C@@H]2CO3)C[C@H]1C [Example 13-76]
BBB activity: − (Compounds that did not meet this threshold are indicated as “−”)

C=CC(=O)N1[C@H](C)CN(c2nc(=O)n3c4c(c(-c5ccc(F)c(Cl)c5)c(C(F)(F)F)cc24)SC[C@@H](OCOC)C3)C[C@@H]1C [Example 13-78]
BBB activity: − (Compounds that did not meet this threshold are indicated as “−”)

C=CC(=O)N1C[C@H](C)N(c2nc(=O)n3c4c(c(-c5ccc(F)cc5)c(C(F)(F)F)cc24)SCC2(COC2)C3)C[C@H]1C [Example 13-79]
BBB activity: − (Compounds that did not meet this threshold are indicated as “−”)

C=CC(=O)N1C[C@H](C)N(c2nc(=O)n3c4c(c(-c5ccc(F)cc5F)c(Cl)cc24)OC[C@H]3CCCN2CCC(F)(F)C2)C[C@H]1C [Example 13-80]
BBB activity: − (Compounds that did not meet this threshold are indicated as “−”)

C=CC(=O)N1CCN(c2nc(=O)n3c4c(c(-c5cc(Cl)c(F)cc5F)c(Cl)cc24)OC[C@@H]3CN2CCN(CC(F)F)CC2)[C@@H](C)C1 [Example 13-81]
BBB activity: − (Compounds that did not meet this threshold are indicated as “−”)

C=CC(=O)N1[C@H](C)CN(c2nc(=O)n3c4c(c(-c5ccc(F)c(Cl)c5)c(C(F)(F)F)cc24)SC[C@@H](OCC)C3)C[C@@H]1C [Example 13-82]
BBB activity: − (Compounds that did not meet this threshold are indicated as “−”)

C=CC(=O)N1[C@H](C)CN(c2nc(=O)n3c4c(c(-c5ccc(F)cc5)c(C(F)(F)F)cc24)SC[C@@H](OCOC)C3)C[C@@H]1C [Example 13-83]
BBB activity: − (Compounds that did not meet this threshold are indicated as “−”)

C=CC(=O)N1[C@H](C)CN(c2nc(=O)n3c4c(c(-c5cc(Cl)c(F)cc5F)c(C(F)(F)F)cc24)SC[C@@H](N2CCOCC2)C3)C[C@@H]1C [Example 13-84]
BBB activity: − (Compounds that did not meet this threshold are indicated as “−”)

C=CC(=O)N1C[C@H](C)N(c2nc(=O)n3c4c(c(-c5ccc(F)cc5F)c(Cl)cc24)OC[C@H]3CC2CCN(C)CC2)C[C@H]1C [Example 13-85]
BBB activity: − (Compounds that did not meet this threshold are indicated as “−”)

C=CC(=O)N1[C@H](C)CN(c2nc(=O)n3c4c(c(-c5cc(Cl)c(F)cc5F)c(C(F)(F)F)cc24)SC[C@@H]3CC2CCN(CC)CC2)C[C@@H]1C [Example 13-86]
BBB activity: − (Compounds that did not meet this threshold are indicated as “−”)

C=CC(=O)N1[C@H](C)CN(c2nc(=O)n3c4c(c(-c5ccc(F)cc5F)c(C(F)(F)F)cc24)SCC2(COC2)C3)C[C@@H]1C [Example 13-87]
BBB activity: − (Compounds that did not meet this threshold are indicated as “−”)

C=CC(=O)N1CCN(c2nc(=O)n3c4c(c(-c5ccc(F)cc5F)c(C(F)(F)F)cc24)SC[C@@H]3CC2CCOCC2)[C@@H](C)C1 [Example 13-88]
BBB activity: − (Compounds that did not meet this threshold are indicated as “−”)

C=CC(=O)N1[C@H](C)CN(c2nc(=O)n3c4c(c(-c5ccc(F)cc5)c(C(F)(F)F)cc24)SCC(COC)(COC)C3)C[C@@H]1C [Example 13-89]
BBB activity: − (Compounds that did not meet this threshold are indicated as “−”)

C=CC(=O)N1[C@H](C)CN(c2nc(=O)n3c4c(c(-c5cc(Cl)c(F)cc5F)c(C(F)(F)F)cc24)SC[C@@H](Nc2ncccn2)C3)C[C@@H]1C [Example 13-90]
BBB activity: − (Compounds that did not meet this threshold are indicated as “−”)

C=CC(=O)N1C[C@H](C)N(c2nc(=O)n3c4c(c(-c5ccc(F)cc5F)c(C(F)(F)F)cc24)OC[C@@H]3COCCOC)C[C@H]1C [Example 13-91]
BBB activity: − (Compounds that did not meet this threshold are indicated as “−”)

C=CC(=O)N1CCN(c2nc(=O)n(-c3c(C)ccnc3C(C)C)c3nc(-c4c(O)cccc4F)c(F)cc23)[C@@H](C)C1 [Example 13-92]
BBB activity: − (Compounds that did not meet this threshold are indicated as “−”)
